This note sets out measurements from patent publication US9394264B2 (Receptos, Inc., priority 2009, dated 2016).

The target in this test is S1P1/EDG1 (Homo sapiens, UniProt P21453). Description: S1P1 CRE-bla CHOK1 reporter assay (inhibition of Forskolin induced cAMP). It is filed as cell-based. The note with it: agonist activity range, S1P1 CRE-bla CHOK1 cells, 2 μM Forskolin; read-out: S1P1 ACTIVITY
S1P1/EDG1, sequence (P21453 whole entry): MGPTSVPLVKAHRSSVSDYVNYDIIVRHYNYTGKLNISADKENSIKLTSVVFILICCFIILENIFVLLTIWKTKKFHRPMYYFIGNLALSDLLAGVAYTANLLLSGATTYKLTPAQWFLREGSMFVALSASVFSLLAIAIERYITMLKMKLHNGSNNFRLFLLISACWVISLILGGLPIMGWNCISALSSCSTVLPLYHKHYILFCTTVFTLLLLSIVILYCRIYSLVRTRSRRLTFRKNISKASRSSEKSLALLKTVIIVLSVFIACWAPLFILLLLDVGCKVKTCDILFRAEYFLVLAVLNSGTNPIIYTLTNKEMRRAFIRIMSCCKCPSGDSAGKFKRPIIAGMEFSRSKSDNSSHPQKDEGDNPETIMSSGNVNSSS
The source says:
A mammalian expression plasmid containing S1P1/EDG1 cloned into pcDNA3.1 was purchased from Missouri S&T cDNA Resource Centre. The nucleotide and amino acid sequence of human S1P1/EDG1 are published in Hla and Maciag (J Biol Chem, 265(1990), 9308-9313). S1P1/pcDNA3.1 was transfected into the CRE-bla CHO K1 (Invitrogen) cell line, and stable single cell clones were selected using standard techniques. Expression of functional S1P1/EDG1 receptor was confirmed by cell surface FACS with a S1P1 antibody (R&D Systems, clone 218713) and S1P-mediated inhibition of Forskolin induced cAMP.
Cells were seeded into 384-well black wall/clear bottom plates at 10^4 cells/well/19.5 μl assay media (DMEM-phenol free, 0.5% charcoal/dextran stripped serum, 2 mM glutamine, 0.1 mM NEAA, 1 mM Na-Pyruvate, 25 mM Hepes) and incubated for 18 hrs at 37° C. in 5% CO2. Dose response curves (10-point) were generated in 10 mM Hepes, 0.1% Pluronic F127, in the presence of Forskolin. Cells were treated with 0.5 μl compound in the presence of 2 μM Forskolin for 4 hrs at 37° C. The FRET-based β-lactamase fluorescent substrate (LiveBLAzer™-FRET B/G Loading Kit CC4-AM; Invitrogen) was prepared according to manufacturer's directions, and incubated with cells for 2 hrs at room temperature. Plates were read at Ex:410/Em:458 and Ex:410/Em:522, and the response ratio determined. Data was analyzed by non-linear regression to determine the EC50 for inhibition of Forskolin induced cAMP.
For orientation: In a reporter assay the amount or activity of a reporter protein is the signal.
`CC(C)Oc1ccc(-c2nc(-c3cccc4c3CCC[C@H]4O)no2)cc1C#N` [Compound 1, (R)-5-(3-(5-hydroxy-5,6,7,8-tetrahydronaphthalen-1-yl)-1,2,4-oxadiazol-5-yl)-2-isopropoxybenzonitrile]: the EC50 lay in the range of 0.05 to 0.5 nM. Then `CC(C)Oc1ccc(-c2nc(-c3cccc4c3CCC[C@@H]4O)no2)cc1C#N` [Compound 2, (S)-5-(3-(5-hydroxy-5,6,7,8-tetrahydronaphthalen-1-yl)-1,2,4-oxadiazol-5-yl)-2-isopropoxybenzonitrile], with < 0.05 nM. The result for `CC(C)Oc1ccc(-c2nc(-c3cccc4c3CCC[C@H]4N)no2)cc1C#N` [Compound 3, (R)-5-(3-(5-amino-5,6,7,8-tetrahydronaphthalen-1-yl)-1,2,4-oxadiazol-5-yl)-2-isopropoxybenzonitrile] reads 0.5 to 5 nM; that for `CC(C)Oc1ccc(-c2nc(-c3cccc4c3CCC[C@@H]4N)no2)cc1C#N` [Compound 4, (S)-5-(3-(5-amino-5,6,7,8-tetrahydronaphthalen-1-yl)-1,2,4-oxadiazol-5-yl)-2-isopropoxybenzonitrile], 0.05 to 0.5 nM; that for `CC(C)Oc1ccc(-c2nc(-c3cccc4c3CCC[C@H]4NC(=O)N(C)C)no2)cc1C#N` [Compound 5], 0.05 to 0.5 nM. Then `CC(C)Oc1ccc(-c2nc(-c3cccc4c3CCC[C@@H]4NC(=O)N(C)C)no2)cc1C#N` [Compound 6], with 0.05 to 0.5 nM. As for `CC(C)Oc1ccc(-c2nc(-c3cccc4c3CCC[C@H]4NC(=O)N3CC(O)C3)no2)cc1C#N` [Compound 7, (R)-N-(5-(5-(3-cyano-4-isopropoxyphenyl)-1,2,4-oxadiazol-3-yl)-1,2,3,4-tetrahydronaphthalen-1-yl)-3-hydroxyazetidine-1-carboxamide], the EC50 lay within 0.05 to 0.5 nM. As for `CC(C)Oc1ccc(-c2nc(-c3cccc4c3CCC[C@@H]4NC(=O)N3CC(C(=O)O)C3)no2)cc1C#N` [Compound 9], the EC50 fell in the range of 0.05 to 0.5 nM.

For `CC(C)Oc1ccc(-c2nc(-c3cccc4c3CCC[C@H]4NC(=O)N3CC(C(=O)O)C3)no2)cc1C#N` [Compound 10], the EC50 lay within 0.05 to 0.5 nM. The result for `CC(C)Oc1ccc(-c2nc(-c3cccc4c3CCC[C@H]4NC(=O)N3CCCC3)no2)cc1C#N` [Compound 11] reads 0.05 to 0.5 nM; that for `CC(C)Oc1ccc(-c2nc(-c3cccc4c3CCC[C@@H]4NC(=O)N3CCCC3)no2)cc1C#N` [Compound 12, (S)-N-(5-(5-(3-cyano-4-isopropoxyphenyl)-1,2,4-oxadiazol-3-yl)-1,2,3,4-tetrahydronaphthalen-1-yl)pyrrolidine-1-carboxamide], 0.05 to 0.5 nM. With `CC(C)Oc1ccc(-c2nc(-c3cccc4c3CCC[C@@H]4NC(=O)N3CC[C@H](O)C3)no2)cc1C#N` [Compound 14], the EC50 lay within 0.05 to 0.5 nM. The result for `CC(C)Oc1ccc(-c2nc(-c3cccc4c3CCC[C@@H]4NC(=O)N3CCOCC3)no2)cc1C#N` [Compound 15, (S)-N-(5-(5-(3-cyano-4-isopropoxyphenyl)-1,2,4-oxadiazol-3-yl)-1,2,3,4-tetrahydronaphthalen-1-yl)morpholine-4-carboxamide] reads 0.05 to 0.5 nM. As for `CC(C)Oc1ccc(-c2nc(-c3cccc4c3CCC[C@H]4NC(=O)N3CCOCC3)no2)cc1C#N` [Compound 16], the EC50 fell in the range of 0.5 to 5 nM. The result for `CC(C)Oc1ccc(-c2nc(-c3cccc4c3CCC[C@@H]4NC(=O)N3CCC[C@H](O)C3)no2)cc1C#N` [Compound 17] reads 0.5 to 5 nM; that for `CC(C)Oc1ccc(-c2nc(-c3cccc4c3CCC[C@H]4NC(=O)N3CCC[C@H](O)C3)no2)cc1C#N` [Compound 18], 0.5 to 5 nM. Then `CC(C)Oc1ccc(-c2nc(-c3cccc4c3CCC[C@H]4NC(=O)N3CCC(O)CC3)no2)cc1C#N` [Compound 19], with 0.5 to 5 nM. Then `CC(C)Oc1ccc(-c2nc(-c3cccc4c3CCC[C@H]4NC(=O)N3CC[C@@H](N(C)C)C3)no2)cc1C#N` [Compound 20, (R)-N-((R)-5-(5-(3-cyano-4-isopropoxyphenyl)-1,2,4-oxadiazol-3-yl)-1,2,3,4-tetrahydronaphthalen-1-yl)-3-(dimethylamino)pyrrolidine-1-carboxamide], with 0.5 to 5 nM; and `CC(=O)N[C@@H]1CCCc2c(-c3noc(-c4ccc(OC(C)C)c(C#N)c4)n3)cccc21` [Compound 21, (R)-N-(5-(5-(3-cyano-4-isopropoxyphenyl)-1,2,4-oxadiazol-3-yl)-1,2,3,4-tetrahydronaphthalen-1-yl)acetamide], with 0.05 to 0.5 nM; and `CC(=O)N[C@H]1CCCc2c(-c3noc(-c4ccc(OC(C)C)c(C#N)c4)n3)cccc21` [Compound 22, (S)-N-(5-(5-(3-cyano-4-isopropoxyphenyl)-1,2,4-oxadiazol-3-yl)-1,2,3,4-tetrahydronaphthalen-1-yl)acetamide], with 0.05 to 0.5 nM. For the compound `COCC(=O)N[C@@H]1CCCc2c(-c3noc(-c4ccc(OC(C)C)c(C#N)c4)n3)cccc21` [Compound 23], the EC50 fell in the range of 0.5 to 5 nM. On to `COCC(=O)N[C@H]1CCCc2c(-c3noc(-c4ccc(OC(C)C)c(C#N)c4)n3)cccc21` [Compound 24], for which the EC50 is 0.05 to 0.5 nM. Then `CC(C)Oc1ccc(-c2nc(-c3cccc4c3CCC[C@H]4NC(=O)CN(C)C)no2)cc1C#N` [Compound 25], with 0.5 to 5 nM; and `CC(C)Oc1ccc(-c2nc(-c3cccc4c3CCC[C@H]4NS(N)(=O)=O)no2)cc1C#N` [Compound 26, (R)-N-(5-(5-(3-cyano-4-isopropoxyphenyl)-1,2,4-oxadiazol-3-yl)-1,2,3,4-tetrahydronaphthalen-1-yl)sulfamide], with 0.05 to 0.5 nM. Then `CC(C)Oc1ccc(-c2nc(-c3cccc4c3CCC[C@@H]4NS(N)(=O)=O)no2)cc1C#N` [Compound 27, (S)-N-(5-(5-(3-cyano-4-isopropoxyphenyl)-1,2,4-oxadiazol-3-yl)-1,2,3,4-tetrahydronaphthalen-1-yl)sulfamide], with < 0.05 nM; and `CC(C)Oc1ccc(-c2nc(-c3cccc4c3CCC[C@H]4NS(C)(=O)=O)no2)cc1C#N` [Compound 28, (R)-N-(5-(5-(3-cyano-4-isopropoxyphenyl)-1,2,4-oxadiazol-3-yl)-1,2,3,4-tetrahydronaphthalen-1-yl)methanesulfonamide], with 0.05 to 0.5 nM. Then `CC(C)Oc1ccc(-c2nc(-c3cccc4c3CCC[C@H]4NS(=O)(=O)C3CC3)no2)cc1C#N` [Compound 30], with 0.05 to 0.5 nM; and `CC(C)Oc1ccc(-c2nc(-c3cccc4c3CCC[C@@H]4NS(=O)(=O)C3CC3)no2)cc1C#N` [Compound 31], with 0.5 to 5 nM; and `COCCS(=O)(=O)N[C@@H]1CCCc2c(-c3noc(-c4ccc(OC(C)C)c(C#N)c4)n3)cccc21` [Compound 32, (R)-N-(5-(5-(3-cyano-4-isopropoxyphenyl)-1,2,4-oxadiazol-3-yl)-1,2,3,4-tetrahydronaphthalen-1-yl)-2-methoxyethanesulfonamide], with 0.05 to 0.5 nM.

As for `CC(C)Oc1ccc(-c2nc(-c3cccc4c3CCC[C@H]4NS(=O)(=O)CC(=O)O)no2)cc1C#N` [Compound 34, (R)-2-(N-(5-(5-(3-cyano-4-isopropoxyphenyl)-1,2,4-oxadiazol-3-yl)-1,2,3,4-tetrahydronaphthalen-1-yl)sulfamoyl)acetic acid], the EC50 is < 0.05 nM. Then `CC(C)Oc1ccc(-c2nc(-c3cccc4c3CCC[C@@H]4NS(=O)(=O)CC(=O)O)no2)cc1C#N` [Compound 35, (S)-2-(N-(5-(5-(3-cyano-4-isopropoxyphenyl)-1,2,4-oxadiazol-3-yl)-1,2,3,4-tetrahydronaphthalen-1-yl)sulfamoyl)acetic acid], with < 0.05 nM.

Regarding `CC(C)Oc1ccc(-c2nc(-c3cccc4c3CCC[C@@H]4NS(=O)(=O)CCO)no2)cc1C#N` [Compound 36, (S)-N-(5-(5-(3-cyano-4-isopropoxyphenyl)-1,2,4-oxadiazol-3-yl)-1,2,3,4-tetrahydronaphthalen-1-yl)-2-hydroxyethanesulfonamide], the EC50 is < 0.05 nM.

Consider `CC(C)Oc1ccc(-c2nc(-c3cccc4c3CCC[C@@H]4NS(=O)(=O)CC(N)=O)no2)cc1C#N` [Compound 38], for which the EC50 is < 0.05 nM.

Turning to `CC(C)Oc1ccc(-c2nc(-c3cccc4c3CCC[C@H]4NS(=O)(=O)CC(N)=O)no2)cc1C#N` [Compound 39], the EC50 was < 0.05 nM. The result for `CC(C)Oc1ccc(-c2nc(-c3cccc4c3CCC[C@H]4NS(=O)(=O)CC(=O)N(C)C)no2)cc1C#N` [Compound 40, (R)-2-(N-(5-(5-(3-cyano-4-isopropoxyphenyl)-1,2,4-oxadiazol-3-yl)-1,2,3,4-tetrahydronaphthalen-1-yl)sulfamoyl)-N,N-dimethylacetamide] reads < 0.05 nM. The result for `CC(C)Oc1ccc(-c2nc(-c3cccc4c3CCC[C@@H]4NS(=O)(=O)CC(=O)N(C)C)no2)cc1C#N` [Compound 41, (S)-2-(N-(5-(5-(3-cyano-4-isopropoxyphenyl)-1,2,4-oxadiazol-3-yl)-1,2,3,4-tetrahydronaphthalen-1-yl)sulfamoyl)-N,N-dimethylacetamide] reads < 0.05 nM; that for `CC(C)Oc1ccc(-c2nc(-c3cccc4c3CCC[C@@H]4NS(=O)(=O)CC(=O)N3CCC3)no2)cc1C#N` [Compound 42], < 0.05 nM.
